Tests used:
alcohol dependence [1] = conditions: 5, 20 and 40 mg daily doses; Anton et al. 2004; cited from earlier work
alcohol dependence [2] = conditions: 20 mg taken when the patient experienced a craving for alcohol; Karhuvaara et al. 2007; cited from earlier work
[3] = tested on: patients with alcohol dependence; test: Studies 12014A, 12023A and 12013A taken together (statements on all three studies); format: in vivo, human; conditions: for Difference between nalmefene and placebo in HDDs and TAC, compared with total study population: all three studies
Excerpt: The efficacy of nalmefene in the reduction of alcohol consumption in patients with alcohol dependence (DSM-IV) has been evaluated in two efficacy studies (Study 12014A and Study 12023A) and one safety study (Study 12013A) as described in the examples. All three studies were randomized, double blind, parallel-group and placebo-controlled.
The studies included outpatients, aged […], with a primary diagnosis of alcohol dependence. A patient was eligible for participation in the study if, in the 4 weeks preceding the Screening Visit (Baseline period), he/she had >6 HDDs, at least a medium DRL (calculated as mean daily alcohol consumption in g/day i.e. >40 g/day for men and >20 g/day for women calculated as mean daily alcohol consumption over the 4 week period preceding the screening visit), and ≦14 consecutive abstinent days. The timeline followback (TLFB) method was used to obtain estimates of the patient's daily drinking.
At the initial visit (screening visit), the patients' clinical status, social situation, and alcohol consumption pattern were evaluated. After a 1- to 2-week observation period the drinking risk level was re-assessed by calculating mean daily alcohol consumption in g/day over the 1- to 2-week observation period, and treatment with nalmefene was initiated together with counseling with focus on motivating the patients to adhere to the treatment and to change their drinking behavior.
The efficacy of nalmefene was measured using two co-primary endpoints: the change in the monthly number of heavy drinking days (HDDs) and the change in the mean daily total alcohol consumption (TAC) per month (=28 days).
The efficacy of nalmefene on the reduction of alcohol consumption in patients with alcohol dependence (DSM-IV) was evaluated in two efficacy studies (Study 12014A and Study 12023A). Both studies were randomised, double blind, two-parallel group, placebo controlled, and after 6 months of treatment, patients receiving nalmefene were re-randomised to receive either placebo or nalmefene in a 1 month run out period. The efficacy of nalmefene was also evaluated in a randomised, double blind, two parallel group, placebo controlled 1 year safety study (Study 12013A). The studies included 1941 patients, 1144 of whom were treated with nalmefene 18 mg in an as-needed dosing regimen.
The efficacy of nalmefene was measured using two co-primary endpoints: the change in the monthly number of heavy drinking days (HDDs) and the change in the mean daily total alcohol consumption (TAC) per month (=28 days). A HDD was defined as a day with a consumption ≧60 g alcohol for men and 40 g for women. The change in HDD and TAC over time in patients treated with nalmefene or placebo is furthermore reflected in FIGS. 1a and 1b-12a and 12b.

alcohol dependence [4] = conditions: 20 to 80 mg daily oral dosing; double-blind, placebo-controlled; Mason et al. 1999; cited from earlier work

SMILES: C=C1CC[C@@]2(O)[C@H]3Cc4ccc(O)c5c4[C@@]2(CCN3CC2CC2)[C@H]1O5 [nalmefene, 17-(cyclopropylmethyl)-4,5-alpha-epoxy-6-methylenemorphinan-3,14-diol]
- Superiority over placebo in the management of alcohol dependence (alcohol dependence [1]): no evidence of superiority
- Effect over placebo in the management of alcohol dependence (alcohol dependence [2]): good effect
- Difference between nalmefene and placebo in HDDs and TAC, compared with total study population ([3]; patients excluding ERs): more pronounced
- Difference between nalmefene and placebo in HDDs and TAC, compared with total study population ([3]; patients with High DRL at baseline): more pronounced
- Difference between nalmefene and placebo in HDDs and TAC, compared with total study population ([3]; patients with High DRL at baseline and randomization): more pronounced
- Reducing the number of HDDs and TAC versus placebo ([3]; month 6, two 6 month efficacy studies and 12 month safety study, total study population): superior to placebo
- Effect in the management of alcohol dependence (alcohol dependence [4]): good effect

From patent publication US20180028526A1, “NALMEFENE FOR REDUCTION OF ALCOHOL CONSUMPTION IN SPECIFIC TARGET POPULATIONS” (H. Lundbeck A/S, priority 2012, published 2018)
